Tests used:
UACC-257 = assay: NCI-60 SRB screen; format: cell-based, human; conditions: Homo sapiens; single dose 10^−5 M; UACC-257, Melanoma; read-out: Growth inhibition (%)
SK-OV-3 = assay: NCI-60 SRB screen; format: cell-based, human; conditions: Homo sapiens; single dose 10^−5 M; SK-OV-3, Ovarian cancer; read-out: Growth inhibition (%)
SF-268 = assay: NCI-60 SRB screen; format: cell-based, human; conditions: Homo sapiens; single dose 10^−5 M; SF-268, CNS cancer; read-out: Growth inhibition (%)
EKVX = assay: NCI-60 SRB screen; format: cell-based, human; conditions: Homo sapiens, single dose 10^−5 M, Non-small cell lung carcinoma, read-out: Growth inhibition (%)
SK-MEL-5 = assay: NCI-60 SRB screen; format: cell-based, human; conditions: Homo sapiens; single dose 10^−5 M; SK-MEL-5, Melanoma; read-out: Growth inhibition (%)
SR = assay: NCI-60 SRB screen; format: cell-based; conditions: Homo sapiens, single dose 10^−5 M, Leukaemia, read-out: Growth inhibition (%)
NCI-H226 = assay: NCI-60 SRB screen; format: cell-based, human; conditions: Homo sapiens; single dose 10^−5 M; NCI-H226, Non-small cell lung carcinoma; read-out: Growth inhibition (%)
MOLT-4 = assay: NCI-60 SRB screen; format: cell-based; conditions: Homo sapiens; single dose 10^−5 M; MOLT-4, Leukaemia; read-out: Growth inhibition (%)
HOP-62 = assay: NCI-60 SRB screen; format: cell-based, human; conditions: Homo sapiens; single dose 10^−5 M; HOP-62, Non-small cell lung carcinoma; read-out: Growth inhibition (%)
CAKI-1 = assay: NCI-60 SRB screen; format: cell-based, human; conditions: Homo sapiens; single dose 10^−5 M; CAKI-1, Renal cancer; read-out: Growth inhibition (%)
ACHN = assay: NCI-60 SRB screen; format: cell-based; conditions: Homo sapiens, single dose 10^−5 M, Renal cancer, read-out: Growth inhibition (%)
K-562 = assay: NCI-60 SRB screen; format: cell-based, human; conditions: Homo sapiens, K562; single dose 10^−5 M; K-562, Leukaemia; read-out: Growth inhibition (%)
SF-295 = assay: NCI-60 SRB screen; format: cell-based, human; conditions: Homo sapiens; single dose 10^−5 M; SF-295, CNS cancer; read-out: Growth inhibition (%)
COLO 205 = assay: NCI-60 SRB screen; format: cell-based, human; conditions: Homo sapiens; single dose 10^−5 M; COLO 205, Colon cancer; read-out: Growth inhibition (%)
HT-29 = assay: NCI-60 SRB screen; format: cell-based; conditions: Homo sapiens; single dose 10^−5 M; HT-29, Colon cancer; read-out: Growth inhibition (%)
SK-MEL-28 = assay: NCI-60 SRB screen; format: cell-based; conditions: Homo sapiens; single dose 10^−5 M; SK-MEL-28, Melanoma; read-out: Growth inhibition (%)
LOX IMVI = assay: NCI-60 SRB screen; format: cell-based, human; conditions: Homo sapiens, single dose 10^−5 M, Melanoma, read-out: Growth inhibition (%)
NCI-H322M = assay: NCI-60 SRB screen; format: cell-based, human; conditions: Homo sapiens, single dose 10^−5 M, Non-small cell lung carcinoma, read-out: Growth inhibition (%)
HCC-2998 = assay: NCI-60 SRB screen; format: cell-based, human; conditions: Homo sapiens; single dose 10^−5 M; HCC-2998, Colon cancer; read-out: Growth inhibition (%)
TK-10 = assay: NCI-60 SRB screen; format: cell-based, human; conditions: Homo sapiens; single dose 10^−5 M; TK-10, Renal cancer; read-out: Growth inhibition (%)
HOP-92 = assay: NCI-60 SRB screen; format: cell-based, human; conditions: Homo sapiens; single dose 10^−5 M; HOP-92, Non-small cell lung carcinoma; read-out: Growth inhibition (%)
UACC-62 = assay: NCI-60 SRB screen; format: cell-based, human; conditions: Homo sapiens; single dose 10^−5 M; UACC-62, Melanoma; read-out: Growth inhibition (%)
UO-31 = assay: NCI-60 SRB screen; format: cell-based, human; conditions: Homo sapiens; single dose 10^−5 M; UO-31, Renal cancer; read-out: Growth inhibition (%)
M14 = assay: NCI-60 SRB screen; format: cell-based, human; conditions: Homo sapiens; single dose 10^−5 M; M14, Melanoma; read-out: Growth inhibition (%)
SK-MEL-2 = assay: NCI-60 SRB screen; format: cell-based, human; conditions: Homo sapiens; single dose 10^−5 M; SK-MEL-2, Melanoma; read-out: Growth inhibition (%)
IGROV1 = assay: NCI-60 SRB screen; format: cell-based, human; conditions: Homo sapiens, IGROV-1; single dose 10^−5 M; IGROV1, Ovarian cancer; read-out: Growth inhibition (%)
HCT-116 = assay: NCI-60 SRB screen; format: cell-based, human; conditions: Homo sapiens; single dose 10^−5 M; HCT-116, Colon cancer; read-out: Growth inhibition (%)
NCI-H522 = assay: NCI-60 SRB screen; format: cell-based, human; conditions: Homo sapiens; single dose 10^−5 M; NCI-H522, Non-small cell lung carcinoma; read-out: Growth inhibition (%)
NCI-H460 = assay: NCI-60 SRB screen; format: cell-based, human; conditions: Homo sapiens; single dose 10^−5 M; NCI-H460, Non-small cell lung carcinoma; read-out: Growth inhibition (%)
OVCAR-4 = assay: NCI-60 SRB screen; format: cell-based, human; conditions: Homo sapiens; single dose 10^−5 M; OVCAR-4, Ovarian cancer; read-out: Growth inhibition (%)
OVCAR-8 = assay: NCI-60 SRB screen; format: cell-based, human; conditions: Homo sapiens; single dose 10^−5 M; OVCAR-8, Ovarian cancer; read-out: Growth inhibition (%)
KM12 = assay: NCI-60 SRB screen; format: cell-based, human; conditions: Homo sapiens; single dose 10^−5 M; KM12, Colon cancer; read-out: Growth inhibition (%)
NCI/ADR-RES = assay: NCI-60 SRB screen; format: cell-based, human; conditions: Homo sapiens, single dose 10^−5 M, Ovarian cancer, read-out: Growth inhibition (%)
[1] = system: panel of 60 cancer cell lines; assay: NCI-60 SRB screen, mean or range over the panel; format: cell-based, human; conditions: Homo sapiens; mean over the cell lines; single dose 10^−5 M; read-out: Mean growth inhibition (%)
MDA-MB-435 = assay: NCI-60 SRB screen; format: cell-based; conditions: Homo sapiens, MDA-MB-435, read-out: Growth inhibition (%)
HCT-15 = assay: NCI-60 SRB screen; format: cell-based, human; conditions: Homo sapiens; single dose 10^−5 M; HCT-15, Colon cancer; read-out: Growth inhibition (%)
OVCAR-3 = assay: NCI-60 SRB screen; format: cell-based, human; conditions: Homo sapiens; single dose 10^−5 M; OVCAR-3, Ovarian cancer; read-out: Growth inhibition (%)
HL-60(TB) = assay: NCI-60 SRB screen; format: cell-based, human; conditions: Homo sapiens; single dose 10^−5 M; HL-60(TB), Leukaemia; read-out: Growth inhibition (%)
SN12C = assay: NCI-60 SRB screen; format: cell-based, human; conditions: Homo sapiens, SN12C; single dose 10^−5 M; SN 12 C, Renal cancer; read-out: Growth inhibition (%)
NCI-H23 = assay: NCI-60 SRB screen; format: cell-based, human; conditions: Homo sapiens; single dose 10^−5 M; NCI-H23, Non-small cell lung carcinoma; read-out: Growth inhibition (%)
SW-620 = assay: NCI-60 SRB screen; format: cell-based; conditions: Homo sapiens; single dose 10^−5 M; SW-620, Colon cancer; read-out: Growth inhibition (%)
A549/ATCC = assay: NCI-60 SRB screen; format: cell-based, human; conditions: Homo sapiens, single dose 10^−5 M, Non-small cell lung carcinoma, read-out: Growth inhibition (%)
RXF 393 = assay: NCI-60 SRB screen; format: cell-based, human; conditions: Homo sapiens; single dose 10^−5 M; RXF 393, Renal cancer; read-out: Growth inhibition (%)
786-0 = assay: NCI-60 SRB screen; format: cell-based; conditions: Homo sapiens; single dose 10^−5 M; 786-0, Renal cancer; read-out: Growth inhibition (%)

CCN1CCN(C2=C(Cl)c3c(sc4c(F)cccc34)C(c3cccc([N+](=O)[O-])c3)N2)CC1 (stereo not shown) [Compound 8a, 4-Chloro-3–(4-ethylpiperzin-1-yl)-8-fluoro-1-(3-nitrophenyl)-1,2-dihydro [1]benzothieno[2,3-c]pyridine]
inhibition at 10 µM (UACC-257): -7.62% | inhibition at 10 µM (SK-OV-3): 1.74% | inhibition at 10 µM (SF-268): 7.38% | inhibition at 10 µM (EKVX): 4.5% | inhibition at 10 µM (SK-MEL-5): -14.1% | inhibition at 10 µM (SR): 23.5% | inhibition at 10 µM (NCI-H226): 17% | inhibition at 10 µM (MOLT-4): 5.94% | inhibition at 10 µM (HOP-62): 3.76% | inhibition at 10 µM (CAKI-1): 21.9% | inhibition at 10 µM (ACHN): 9.21% | inhibition at 10 µM (K-562): 13.2% | inhibition at 10 µM (SF-295): 0.4% | inhibition at 10 µM (COLO 205): -11.9% | inhibition at 10 µM (HT-29): 2.3% | inhibition at 10 µM (SK-MEL-28): -10.8% | inhibition at 10 µM (LOX IMVI): 6.7% | inhibition at 10 µM (NCI-H322M): -1.6% | inhibition at 10 µM (HCC-2998): -2.53% | inhibition at 10 µM (TK-10): -41.7% | inhibition at 10 µM (HOP-92): 10.7% | inhibition at 10 µM (UACC-62): 11.6% | inhibition at 10 µM (UO-31): 35.8% | inhibition at 10 µM (M14): 6.73% | inhibition at 10 µM (SK-MEL-2): 3.85% | inhibition at 10 µM (IGROV1): 23.8% | inhibition at 10 µM (HCT-116): 15% | inhibition at 10 µM (NCI-H522): 14.3% | inhibition at 10 µM (NCI-H460): 0.6% | inhibition at 10 µM (OVCAR-4): 3.25% | inhibition at 10 µM (OVCAR-8): 2.09% | inhibition at 10 µM (KM12): -1.16% | inhibition at 10 µM (NCI/ADR-RES): -1.63% | inhibition at 10 µM [1]: -0.2% | inhibition at 10 µM (MDA-MB-435): -6.27% | inhibition at 10 µM (HCT-15): 2.5% | inhibition at 10 µM (OVCAR-3): 1.03% | inhibition at 10 µM (HL-60(TB)): -9.32% | inhibition at 10 µM (SN12C): 2.25% | inhibition at 10 µM (NCI-H23): 7.1% | inhibition at 10 µM (SW-620): 4.03% | inhibition at 10 µM (A549/ATCC): 1.8% | inhibition at 10 µM (RXF 393): -2.44% | inhibition at 10 µM (786-0): -7.31%

O=[N+]([O-])c1cccc(C2NC(N3CCOCC3)=C(Cl)c3c2sc2c(F)cccc32)c1 (stereo not shown) [Compound 8b, 4-Chloro-3-(4-morpholino)-8-fluoro-1-(3-nitrophenyl)-1,2-dihydro [1]benzothieno[2,3-c]pyridine]
inhibition at 10 µM (UACC-257): -3.74% | inhibition at 10 µM (SK-OV-3): -1.6% | inhibition at 10 µM (SF-268): 7.66% | inhibition at 10 µM (EKVX): 14.3% | inhibition at 10 µM (SK-MEL-5): -8.74% | inhibition at 10 µM (SR): 20.4% | inhibition at 10 µM (NCI-H226): 20.9% | inhibition at 10 µM (MOLT-4): 13.6% | inhibition at 10 µM (HOP-62): 16.1% | inhibition at 10 µM (CAKI-1): 32.5% | inhibition at 10 µM (ACHN): 9.98% | inhibition at 10 µM (K-562): 18.6% | inhibition at 10 µM (SF-295): 4.37% | inhibition at 10 µM (COLO 205): -12.9% | inhibition at 10 µM (HT-29): 0.78% | inhibition at 10 µM (SK-MEL-28): -7.54% | inhibition at 10 µM (LOX IMVI): 8.33% | inhibition at 10 µM (NCI-H322M): 0.04% | inhibition at 10 µM (HCC-2998): -13.5% | inhibition at 10 µM (TK-10): -39.7% | inhibition at 10 µM (HOP-92): 22.2% | inhibition at 10 µM (UACC-62): 17.5% | inhibition at 10 µM (UO-31): 38.6% | inhibition at 10 µM (M14): 7.49% | inhibition at 10 µM (SK-MEL-2): 8.89% | inhibition at 10 µM (IGROV1): 16.2% | inhibition at 10 µM (HCT-116): 25.3% | inhibition at 10 µM (NCI-H522): 17.3% | inhibition at 10 µM (NCI-H460): 6.4% | inhibition at 10 µM (OVCAR-4): 13.5% | inhibition at 10 µM (OVCAR-8): 1.71% | inhibition at 10 µM (KM12): 6.99% | inhibition at 10 µM (NCI/ADR-RES): 1.45% | inhibition at 10 µM [1]: 6.1% | inhibition at 10 µM (MDA-MB-435): -2.51% | inhibition at 10 µM (HCT-15): 4.11% | inhibition at 10 µM (OVCAR-3): 2.72% | inhibition at 10 µM (HL-60(TB)): -10.1% | inhibition at 10 µM (SN12C): 3.71% | inhibition at 10 µM (NCI-H23): 5.35% | inhibition at 10 µM (SW-620): 7.44% | inhibition at 10 µM (A549/ATCC): -0.74% | inhibition at 10 µM (RXF 393): 11.9% | inhibition at 10 µM (786-0): -6.62%

— paper PMC8330742, “New benzothieno[2,3-c]pyridines as non-steroidal CYP17 inhibitors: design, synthesis, anticancer screening, apoptosis induction, and in silico ADME profile studies” (Journal of Enzyme Inhibition and Medicinal Chemistry, 2021)
